Experimental data as given in patent US9856279B2 (AGIOS PHARMACEUTICALS, INC, priority 2011, dated 2018).
Read-outs that look alike come from different tables or passages of the source.

Key:
[1] = test system: U87MG cells; test: Cellular assay for IDH1m inhibitors: inhibition of 2-HG production (LC-MS, 48 hours) in U87MG cells; assay type: cell-based; details: inhibition of 2-HG production, U87R132H cells, read-out: U87R132H IC50
Outline: (§1)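 Cells were seeded at 5000/well in DMEM with 10% FBS, incubated overnight, then treated with compound (0.2% DMSO final) for 48 h at 37° C. Medium 2-HG was quantified by LC-MS. IC50 is the concentration reducing 2-HG by 50% versus DMSO control, and CellTiter-Glo viability was read at 72 h.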

[2] = target: IDH1 R132H (Homo sapiens, UniProt O75874, R132H); test: Assay for IDH1 R132H inhibitors (NADPH/aKG, resazurin detection); assay type: biochemical; details: enzyme assay of Example 12; read-out: IDH1R132H IC50
Outline: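 Compound added to substrate mix (8 uM NADPH, 2 mM aKG), then enzyme mix (0.2 μg/ml IDH1 R132H); 50 min RT in 20 mM Tris pH 7.5, 150 mM NaCl, 10 mM MgCl2, 0.03% BSA. Resazurin detection mix (30 μM) 5 min RT; resorufin fluorescence Ex544/Em590.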

[3] = test system: HT1080 cells; test: Cellular assay for IDH1m inhibitors: inhibition of 2-HG production (LC-MS, 48 hours) in HT1080 cells; assay type: cell-based; details: Homo sapiens, HT-1080; inhibition of 2-HG production, HT1080 cells; read-out: HT1080 IC50
Outline: as §1

Chain of IDH1 R132H (O75874 whole entry R132H): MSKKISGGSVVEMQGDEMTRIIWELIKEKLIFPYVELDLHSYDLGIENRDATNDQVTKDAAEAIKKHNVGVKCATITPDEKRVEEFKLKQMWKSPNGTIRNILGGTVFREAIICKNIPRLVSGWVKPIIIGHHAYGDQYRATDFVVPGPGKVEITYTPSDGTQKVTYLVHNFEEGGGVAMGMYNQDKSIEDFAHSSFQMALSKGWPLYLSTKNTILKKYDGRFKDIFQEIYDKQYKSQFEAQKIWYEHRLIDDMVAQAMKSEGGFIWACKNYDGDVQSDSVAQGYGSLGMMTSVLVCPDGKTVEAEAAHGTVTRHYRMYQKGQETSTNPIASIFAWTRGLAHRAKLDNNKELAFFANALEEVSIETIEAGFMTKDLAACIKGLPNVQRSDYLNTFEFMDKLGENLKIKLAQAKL

IC50 ([1]; Homo sapiens, U-87 MG) | IC50 [2] | IC50 [3] | IC50 [1] | SMILES
< 500 nM | < 500 nM | < 500 nM | – | C=Cc1ccnc(Nc2cc(C#N)c(N3CCN(C(=O)CCOC)[C@H](C)C3)nc2C2CC2)n1 [Compound 736, (R)-6-cyclopropyl-2-(4-(3-methoxypropanoyl)-3-methylpiperazin-1-yl)-5-((4-vinylpyrimidin-2-yl)amino)nicotinonitrile]
– | < 500 nM | 500 to 1000 nM | 500 to 1000 nM | C=Cc1ncc2c(-c3cc(C#N)c(N4CCN(C(=O)CCO)[C@H](C5CC5)C4)nc3C3CC3)cccc2n1 [Compound 737]
< 500 nM | < 500 nM | < 500 nM | – | C=Cc1cc(-c2cc(C#N)c(N3CCN(C(=O)CO)[C@H](C4CC4)C3)nc2C2CC2)ccn1 [Compound 738, (R)-2-cyclopropyl-6-(3-cyclopropyl-4-(2-hydroxyacetyl)piperazin-1-yl)-2′-vinyl-3,4′-bipyridine-5-carbonitrile]
< 500 nM | < 500 nM | < 500 nM | – | C=Cc1cc(-c2cc(C#N)c(N3CCN(C(=O)CCO)[C@H](C4CC4)C3)nc2C2CC2)c2cc[nH]c2n1 [Compound 740, (R)-6-cyclopropyl-2-(3-cyclopropyl-4-(3-hydroxypropanoyl)piperazin-1-yl)-5-(6-vinyl-1H-pyrrolo[2,3-b]pyridin-4-yl)nicotinonitrile]
< 500 nM | < 500 nM | < 500 nM | – | C=Cc1cc(-c2cc(C#N)c(N3CCN(C(=O)COC)[C@H](C(C)C)C3)nc2C2CC2)c2ccncc2n1 [Compound 741, (R)-6-cyclopropyl-2-(3-isopropyl-4-(2-methoxyacetyl)piperazin-1-yl)-5-(2-vinyl-1,7-naphthyridin-4-yl)nicotinonitrile]
< 500 nM | < 500 nM | < 500 nM | – | C=Cc1cc(Nc2c(C3CC3)nc(N3CCN(C(=O)CCO)[C@H](C4CC4)C3)c(C#N)c2C)ccn1 [Compound 742, (R)-6-cyclopropyl-2-(3-cyclopropyl-4-(3-hydroxypropanoyl)piperazin-1-yl)-4-methyl-5-(2-vinylpyridin-4-ylamino)nicotinonitrile]
< 500 nM | < 500 nM | < 500 nM | – | C=Cc1cc(Nc2cc(C#N)c(N3CCN(C(=O)COC)[C@H](C(C)C)C3)nc2C2CC2)ccn1 [Compound 743, (R)-6-cyclopropyl-2-(3-isopropyl-4-(2-methoxyacetyl)piperazin-1-yl)-5-((2-vinylpyridin-4-yl)amino)nicotinonitrile]
< 500 nM | < 500 nM | < 500 nM | – | C=Cc1cc(-c2cc(C#N)c(N3CCN(C(=O)CCO)[C@H](C4CC4)C3)nc2C2CC2)c2cnn(C)c2n1 [Compound 744, (R)-6-cyclopropyl-2-(3-cyclopropyl-4-(3-hydroxypropanoyl)piperazin-1-yl)-5-(1-methyl-6-vinyl-1H-pyrazolo[3,4-b]pyridin-4-yl)nicotinonitrile]
< 500 nM | < 500 nM | < 500 nM | – | C=CC(=O)N1CCC=C(c2c(C3CC3)nc(N3CCN(C(=O)CCOC)[C@H](C4CC4)C3)c(C#N)c2C)C1 [Compound 745, (R)-5-(1-acryloyl-1,2,5,6-tetrahydropyridin-3-yl)-6-cyclopropyl-2-(3-cyclopropyl-4-(3-methoxypropanoyl)piperazin-1-yl)-4-methylnicotinonitrile]
< 500 nM | < 500 nM | < 500 nM | – | C=Cc1cc(-c2c(C3CC3)nc(N3CCN(C(=O)CCOC)[C@H](C4CC4)C3)c(C#N)c2C)c2ccncc2n1 [Compound 746, 6-cyclopropyl-2-((R)-3-cyclopropyl-4-(3-methoxypropanoyl)piperazin-1-yl)-4-methyl-5-(2-vinyl-1,7-naphthyridin-4-yl)nicotinonitrile]
< 500 nM | < 500 nM | < 500 nM | – | C=Cc1cc(-c2cc(C#N)c(N3CCN(C(=O)CCCOC)[C@H](C4CC4)C3)nc2C2CC2)ccn1 [Compound 747, (R)-2-cyclopropyl-6-(3-cyclopropyl-4-(4-methoxybutanoyl)piperazin-1-yl)-2′-vinyl-3,4′-bipyridine-5-carbonitrile]
< 500 nM | < 500 nM | < 500 nM | – | N#Cc1cc(Nc2ccnc(Cl)c2)c(C2CC2)nc1N1CCN(C(=O)C[C@H]2CCO2)[C@H](C2CC2)C1 [Compound 748, 5-(2-chloropyridin-4-ylamino)-6-cyclopropyl-2-((R)-3-cyclopropyl-4-(2-((R)-oxetan-2-yl)acetyl)piperazin-1-yl)nicotinonitrile]
< 500 nM | < 500 nM | < 500 nM | – | C=Cc1cc(-c2c(C3CC3)nc(N3CCN(C(=O)CCOC)[C@H](C4CC4)C3)c(C#N)c2C)cnn1 [Compound 749, (R)-6-cyclopropyl-2-(3-cyclopropyl-4-(3-methoxypropanoyl)piperazin-1-yl)-4-methyl-5-(6-vinylpyridazin-4-yl)nicotinonitrile]
< 500 nM | < 500 nM | < 500 nM | – | C#Cc1ccnc(Nc2cc(C#N)c(N3CCN(C(=O)COC)[C@H](C4CC4)C3)nc2C2CC2)c1 [Compound 750, (R)-6-cyclopropyl-2-(3-cyclopropyl-4-(2-methoxyacetyl)piperazin-1-yl)-5-(4-ethynylpyridin-2-ylamino)nicotinonitrile]
< 500 nM | < 500 nM | < 500 nM | – | C=Cc1cc(Nc2cc(C#N)c(N3CCN(C(=O)C[C@H]4CCO4)[C@H](C4CC4)C3)nc2C2CC2)ccn1 [Compound 751, 6-cyclopropyl-2-((R)-3-cyclopropyl-4-(2-((R)-oxetan-2-yl)acetyl)piperazin-1-yl)-5-(2-vinylpyridin-4-ylamino)nicotinonitrile]
< 500 nM | < 500 nM | < 500 nM | – | C=Cc1cc(-c2cc(C#N)c(N3CCN(C(=O)C[C@H]4CCO4)[C@H](C4CC4)C3)nc2C2CC2)ccn1 [Compound 752, 2-cyclopropyl-6-((R)-3-cyclopropyl-4-(2-((R)-oxetan-2-yl)acetyl)piperazin-1-yl)-2′-vinyl-3,4′-bipyridine-5-carbonitrile]
< 500 nM | < 500 nM | < 500 nM | – | C=Cc1cc(-c2cc(C#N)c(N3CCN(C(=O)CCCO)[C@H](C4CC4)C3)nc2C2CC2)ccn1 [Compound 753, (R)-2-cyclopropyl-6-(3-cyclopropyl-4-(4-hydroxybutanoyl)piperazin-1-yl)-2′-vinyl-3,4′-bipyridine-5-carbonitrile]
< 500 nM | < 500 nM | < 500 nM | – | C=Cc1cc(Nc2cc(C#N)c(N3CCN(C(=O)CCO)[C@H](C(C)C)C3)nc2C2CC2)ccn1 [Compound 754, (R)-6-cyclopropyl-2-(4-(3-hydroxypropanoyl)-3-isopropylpiperazin-1-yl)-5-(2-vinylpyridin-4-ylamino)nicotinonitrile]
< 500 nM | < 500 nM | < 500 nM | – | C=CC(=O)N1CCC=C(c2c(C3CC3)nc(N3CCN(C(=O)CCO)[C@H](C4CC4)C3)c(C#N)c2C)C1 [Compound 755, (R)-5-(1-acryloyl-1,2,5,6-tetrahydropyridin-3-yl)-6-cyclopropyl-2-(3-cyclopropyl-4-(3-hydroxypropanoyl)piperazin-1-yl)-4-methylnicotinonitrile]
< 500 nM | < 500 nM | < 500 nM | – | C=Cc1ccnc(Nc2cc(C#N)c(N3CCN(C(=O)CCO)[C@H](C4CC4)C3)nc2C2CC2)c1 [Compound 756, (R)-6-cyclopropyl-2-(3-cyclopropyl-4-(3-hydroxypropanoyl)piperazin-1-yl)-5-((4-vinylpyridin-2-yl)amino)nicotinonitrile]
< 500 nM | < 500 nM | < 500 nM | – | C=Cc1cc(-c2c(C3CC3)nc(N3CCN(C(=O)C[C@H]4CCO4)[C@H](C4CC4)C3)c(C#N)c2C)ccn1 [Compound 760, 2-cyclopropyl-6-((R)-3-cyclopropyl-4-(2-((R)-oxetan-2-yl)acetyl)piperazin-1-yl)-4-methyl-2′-vinyl-3,4′-bipyridine-5-carbonitrile]
< 500 nM | < 500 nM | < 500 nM | – | C=Cc1cc(-c2c(C3CC3)nc(N3CCN(C(=O)C[C@@H]4CCO4)[C@H](C4CC4)C3)c(C#N)c2C)ccn1 [Compound 761, 2-cyclopropyl-6-((R)-3-cyclopropyl-4-(2-((S)-oxetan-2-yl)acetyl)piperazin-1-yl)-4-methyl-2′-vinyl-3,4′-bipyridine-5-carbonitrile]
< 500 nM | < 500 nM | < 500 nM | – | C=CC(=O)N1CCC=C(c2c(C3CC3)nc(N3CCN(C(=O)CCO)[C@H](C(C)C)C3)c(C#N)c2C)C1 [Compound 762, (R)-1′-acryloyl-2-cyclopropyl-6-(4-(3-hydroxypropanoyl)-3-isopropylpiperazin-1-yl)-4-methyl-1′,2′,5′,6′-tetrahydro-[3,3′-bipyridine]-5-carbonitrile]
< 500 nM | < 500 nM | < 500 nM | – | C=Cc1ccnc(Nc2cc(C#N)c(N3CCN(C(=O)C[C@H]4CCO4)[C@H](C(C)C)C3)nc2C2CC2)c1 [Compound 764, 6-cyclopropyl-2-((R)-3-isopropyl-4-(2-((R)-oxetan-2-yl)acetyl)piperazin-1-yl)-5-((4-vinylpyridin-2-yl)amino)nicotinonitrile]
